How the values were obtained:
human COX-2 promoter = assay: IL-1β-induced human COX-2 promoter-luciferase assay in ARPE-19 cells; type: cell-based; conditions: IL-1β 10 ng/ml 8 h, NPD1 0.05 to 100 nM, read-out: IC50, IL-1β induction of the COX-2 promoter
Experimental: Transfection of ARPE-19 cells with human COX-2 (830 bp): ARPE-19 cells growing in 12-well plates were transfected with 5 μg human COX-2-luciferase construct (830 bp) by FuGENE-6 (obtained from Drs. S. Prescott and D. Dixon, Vanderbilt University, Nashville, Tenn.). Four hours later, the medium containing FuGENE-6 was removed, fresh DMEM-F12 (10% FBS) was added, and the cells further incubated 8 h at 37° C. Transfected cells were serum-starved for 4 h and challenged with IL-1β (10 ng/ml) for 8 h with or without NPD1. NPD1 was added at concentrations from 0.05 to 100 nm. Eight hours later, cell homogenates were made, protein concentrations were adjusted, and luciferase assays were performed using 20 μg equivalent protein in Monolight 2010 for 20 seconds with luciferin as substrate, as described below.
Luciferase assay: The medium containing IL-1β and NPD1 was removed, and the cells were washed with 1 ml cold PBS. The cells were scraped and centrifuged 2500×g for 20 minutes at 4° C. The cell pellet was re-suspended in 500 μl of 2×luciferase assay buffer (ALL, 0.2 mM tricine, 2 mM DTT, 30 mM MgSO4 and 10 mM ATP). […] The relative light units were determined by using an ALL luminometer recording over a 20-second interval, as described in Bazan, N. G., Fletcher, B. S., Herschman, H. R. & Mukherjee, P. K. (1994) Proc. Natl. Acad. Sci. U.S.A. 91:5252-5256. […]

[1] = tested on: IL-1β-induced NF-κB activation; assay: EMSA of NF-κB in IL-1β-exposed human neural progenitor cells; type: cell-based; conditions: HN progenitor cells, IL-1β 10 ng/ml 3 h
Experimental: Human neural (HN) progenitor cells in primary culture. HN cells were grown to ˜70% confluence (˜50,000 cells per 3.5-cm diameter well) in 6-well COSTAR plates at 37° C., 5% CO2/20% O2/75% N2 in humidified air at 1 atm (normoxic conditions) in NPMM medium (Clonetics CC-4241) supplemented with hFGF, NSF-1, hEGF, GA-1000, as described by the manufacturer (Clonetics, Walkersville, Md.). HN cells tested negative for HIV-1, hepatitis B and C, mycoplasma, bacteria, yeast, and fungi, and positive for the glial and neuronal markers GFAP, MAP2, and β-tubulin III (Clonetics). […]
Electrophoretic mobility-shift assay (EMSA) of human AP1, HIF-1α, NF-κBp50/p65, and STAT-1α. Nuclear protein extracts (NPXTs) were prepared from one to three 3.5 cm-diameter wells of HN cells and quantitated. NPXTs (5 μg) derived from HN cells were incubated with[γ-^32P]-ATP (˜3000 Ci/mmol)-end-labeled AP1, HIF-1α, NF-κκBp50/p65, or STAT-1α consensus and mutant oligonucleotides in 5-μl volumes, reacted for 30 min on ice, analyzed on 5% or 10% acrylamide/90 mM Tris-borate pH 8.4, 1 mM EDTA (TBE) gels, dried onto 2-mm Whatman filter paper at 80° C. for 2 h, and phosphorimaged using a Typhoon Variable Mode Imager (Amersham Pharmacia Biotech, Piscataway, N.J. ).

[2] = tested on: myeloperoxidase immunoreactivity (PMN leukocytes); assay: Immunohistochemistry of myeloperoxidase after MCA-O; type: in vivo, mouse; conditions: infusion 0.4 μg over 48 h; 1 h MCA-O, 48 h reperfusion
Experimental: Immunohistochemistry of myeloperoxidase to assess leukocyte infiltration. After MCA-O, mice were infused by Alzet mini-pumps with vehicle or 10,17S-docosatriene (NPD1). After 48 h, mice were anesthetized and killed by intracardial perfusion of ice-cold saline followed by 10% neutral buffered formalin. Brain tissues were allowed to equilibrate overnight in 4% buffered formalin, followed by 30% sucrose in 0.1 M PBS. Frozen sections were made at 10 μm thickness and mounted on glass slides. Sections were permeablized with 0.6% Triton X-100 for 10 min, washed in PBS, and blocked in 2% goat serum in PBS for 30 min. Incubation with myeloperoxidase/FITC-conjugated antibody (DAKO A/S, Denmark) was performed at 1:200 dilution for 2 h. Sections were washed in Tween-20 in PBS then mounted in Vectashield (Vector, Calif.). Images were recorded by deconvolution microscope (Intelligent Imaging Innovations, Denver, Colo.).
To determine whether 10,17S-docosatriene (NPD1) affected brain ischemia-reperfusion-induced PMN infiltration, either DHA or 10,17S-docosatriene (NPD1) was constantly infused into the third ventricle of a mouse brain during 48 h of reperfusion. […] The data shown represent averages± SD of the indicated number (n) of individual mice. Immunocytochemical changes in polymorphonuclear leukocytes were shown by a green fluorescence that indicated myeloperoxidase immunoreactivity. […]

## CC/C=C\C[C@H](O)\C=C/C=C/C=C/[C@H](O)C/C=C\C/C=C\CCC(=O)O [NPD1, 10,17S-docosatriene]
Human COX-2 promoter
  IC50: < 5 nM
[1]
  concentration at which inhibitory effect on NF-κB is seen (as low as): 0.3 nM
[1]; concentration-dependent
  effect on IL-1β-induced NF-κB activation: down-regulated
[2]
  green fluorescence (myeloperoxidase immunoreactivity), ipsilateral brain: surprisingly large reduction
